# In publication PMC9220410, “Antiamoebic Properties of Laboratory and Clinically Used Drugs against Naegleria fowleri and Balamuthia mandrillaris” (Antibiotics, 2022):
# Experiments:
# N. fowleri trophozoites = assay: Amoebicidal assay against N. fowleri trophozoites (Trypan blue); format: cell-based, Naegleria fowleri; settings: for minimal effective concentration / EC50: Naegleria fowleri; for minimal effective concentration: compared to solvent control, p < 0.05, 24 h, read-out: Lowest concentration showing significant amoebicidal activity against N. fowleri; for EC50: trophozoites, 24 h, Trypan blue, read-out: Half maximal effective concentration (EC50), N. fowleri
# Description: (§1) Amoebicidal assays were performed as previously described. Briefly, 5 × 10^5 amoebae (N. fowleri and B. mandrillaris cells) were incubated with drugs and/or solvents in 24-well plates in RPMI-1640. Amoebae were incubated with RPMI-1640 for negative controls while DMSO and ethanol were used as solvent control. For the positive control, the anti-amoebic drug, 100 μM miltefosine was used. Plates were incubated at 37 °C and 5% CO2 for 24 h. Next, 0.1% Trypan blue was added to each well. […] The number of live cells (i.e., unstained) was counted using a haemocytometer to determine amoebicidal effects of various compounds. The data are representative of the mean ± standard error of several experiments performed in duplicate.
# (§2) Figure 1 The amoebicidal activities of compounds against N. fowleri trophozoites. N. fowleri trophozoites were incubated with various concentrations of compounds for 24 h and trophozoites viability was determined using Trypan blue. Percentage amoebicidal activity was calculated by: [((RPMI cell count − cell count for sample)/RPMI cell count) × 100)]. The activities of solvents alone were negated from the activities of the compounds. The data is presented as the mean ± standard error (*: p < 0.05, **: p < 0.01, ***: p < 0.001 using student t-test; two tailed distribution).
# HaCaT cells = format: cell-based, human; settings: LDH release, 24 h, concentration not given
# Description: Cytotoxic effects of the drugs were determined as previously described^21. Briefly, the cytotoxic activity of the drugs was investigated against HaCaT cells. […] The LDH assay protocol is based on an enzymatic reaction, i.e., LDH released from the cell oxidizes lactate to generate NADH, which then reacts with water-soluble tetrazolium salt (WST) to generate a yellow color. The intensity of the generated color correlates directly with the number of lyzed cells. Following this, 1% Triton X-100 was added to the positive control well and incubated the plate for 60 min at 37 °C. For negative control, human cells were grown in RPMI alone well. Then, an equal amount of cells supernatant (comprising LDH enzyme) from each well was combined with equal amount of LDH kit reagents and cytotoxicity was determined in proportion to LDH released from human cells using a spectrophotometer at 490 nm. The percentage LDH released was determined as follows: [(Absorbance of sample − Absorbance of control)/(Absorbance for total LDH release − Absorbance of control)] × 100 = percentage cytotoxicity.
# Figure 4 Cytotoxic effects of compounds against human cells are depicted. Various concentrations of compounds were incubated with human cells for 24 h at 37 °C and 5% CO2. RPMI alone was used as negative control and triton X-100 was used as positive control. Data are presented as the mean ± standard error of 2 experiments conducted in duplicates.
# [1] = set-up: method as in PMID 29206032, PMID 32548431; settings: ref [24],[25],[26]; cited from earlier work
# [2] = system: B. mandrillaris trophozoites; assay: Amoebicidal assay against B. mandrillaris trophozoites (Trypan blue); format: cell-based, Balamuthia mandrillaris; settings: for EC50: Balamuthia mandrillaris, trophozoites, 24 h, Trypan blue, read-out: Half maximal effective concentration (EC50), B. mandrillaris
# Description: as §1
# as §2, with “Figure 2” for “Figure 1”, “against B. mandrillaris” for “against N. fowleri”, “trophozoites. B. mandrillaris” for “trophozoites. N. fowleri”
# N. fowleri cysts = assay: Excystation assay, N. fowleri cysts; format: cell-based, Naegleria fowleri; settings: Naegleria fowleri; 100 μM, after negating effects of solvent alone; read-out: Inhibition of excystation of N. fowleri
# Description: (§3) Briefly, 5 × 10^5 amoebae cysts (N. fowleri and B. mandrillaris cells) were incubated with 100 μM drugs and/or solvent in 24-well plates containing RPMI-1640 on HeLa monolayers at 37 °C and 5% CO2 until around 75% of the cysts in RPMI-1640 alone have excysted. The RPMI-1640 alone was used as a negative control while DMSO and ethanol were used as a solvent control and 100 μM miltefosine was used as positive control. Live trophozoites (amoebae that excysted) were then quantified by counting live (unstained) cells, after addition of 0.1% Trypan blue to each well, using a haemocytometer. Percentage inhibition is defined as: [(Number of trophozoites in untreated well − Number of trophozoites in treated well)/Number of trophozoites in untreated well)] × 100. The data are representative of the mean ± standard error of several independent experiments performed in duplicate.
# (§4) Figure 3 (A) Inhibition of excystation of N. fowleri cysts. N. fowleri cysts were incubated with 100 μM drugs and/or solvent in 24-well plates containing RPMI-1640 on HeLa monolayers for 24 h and number of viable trophozoites were then enumerated. Percentage inhibition of excystation was calculated by: [((RPMI trophozoite cell count − trophozoite cell count for sample)/RPMI trophozoite cell count) × 100)]. The activities of solvents alone were negated from the activities of the compounds. The data is presented as the mean ± standard error (*: p ˂ 0.05, **: p < 0.01, ***: p < 0.001 using student t-test; two tailed distribution). (B) Inhibition of excystation of B. mandrillaris cysts. B. mandrillaris cysts were incubated with 100 μM drugs and/or solvent in 24-well plates containing RPMI-1640 on HeLa monolayers for 24 h and number of viable trophozoites were then enumerated. Percentage inhibition of excystation was calculated by: [((RPMI trophozoite cell count − trophozoite cell count for sample)/RPMI trophozoite cell count) × 100)]. The activities of solvents alone were negated from the activities of the compounds. The data is presented as the mean ± standard error (*: p ˂ 0.05, **: p < 0.01, ***: p < 0.001 using student t-test; two tailed distribution).
# B. mandrillaris cysts = assay: Excystation assay, B. mandrillaris cysts; format: cell-based; settings: Balamuthia mandrillaris; 100 μM, after negating effects of solvent alone; read-out: Inhibition of excystation of B. mandrillaris
# Description: as §3, §4
# [3] = summary in discussion, concentration not given
Compound,minimal effective concentration (N. fowleri trophozoites) [µM],EC50 (N. fowleri trophozoites) [µM],Amoebicidal activity against N. fowleri (N. fowleri trophozoites; [3]) [%],Cytotoxicity against HaCaT cells (HaCaT cells),BBB Permeability [1],EC50 [2] [µM],"Amoebicidal activity against B. mandrillaris [2, 3] [%]",inhibition at 100 µM (N. fowleri cysts) [%],inhibition at 100 µM (B. mandrillaris cysts) [%]
"CC(C)C1CCC(C(=O)N[C@H](Cc2ccccc2)C(=O)O)CC1 (stereo partly drawn) [Nateglinide, (2R)-3-phenyl-2-[(4-propan-2-ylcyclohexanecarbonyl)amino]propanoic acid]",≥ 6.25,44.4,64,2%,Positive,136,39,42,57
"CCOc1cc(CC(=O)N[C@@H](CC(C)C)c2ccccc2N2CCCCC2)ccc1C(=O)O [Repaglinide, 2-ethoxy-4-[2-[[(1S)-3-methyl-1-(2-piperidin-1-ylphenyl)butyl]amino]-2-oxoethyl]benzoic acid]",50,14.3,,did not exhibit any cytotoxicity,Negative,31.8,,49,< 10
